Measurements: US20170298051A1, “ACTIVATOR OF ADIPONECTIN RECEPTOR” (THE UNIVERSITY OF TOKYO, priority 2013, published 2017)

Columns and labels:
AdipoR1 [1] = target: T1, AdipoR1 (Mus musculus, UniProt Q91VH1); experiment: Measurement of AMPK phosphorylation ability (Assay 1), differentiated C2C12 cells, Western blotting; format: cell-based; conditions: 10 μM, 10 minutes
T1 construct: C2C12 cells (ATCC; CRL-1772, medium; host or cells: differentiated C2C12
T1 sequence (Q91VH1 1-375): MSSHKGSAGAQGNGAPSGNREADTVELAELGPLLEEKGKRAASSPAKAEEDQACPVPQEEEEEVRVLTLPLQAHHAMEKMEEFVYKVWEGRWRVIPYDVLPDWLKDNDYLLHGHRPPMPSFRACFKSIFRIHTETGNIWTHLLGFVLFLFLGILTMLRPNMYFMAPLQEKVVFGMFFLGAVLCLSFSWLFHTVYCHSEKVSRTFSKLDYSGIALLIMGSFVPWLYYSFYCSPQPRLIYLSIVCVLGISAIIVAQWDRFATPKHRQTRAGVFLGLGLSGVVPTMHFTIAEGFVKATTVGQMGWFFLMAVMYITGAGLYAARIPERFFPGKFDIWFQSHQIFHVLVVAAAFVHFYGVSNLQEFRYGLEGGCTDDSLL
Method: (§1) The AMPK phosphorylation ability of the respective compounds according to the present invention was measured by using differentiated C2C12 cells or HEK 293T cells.
C2C12 cells (ATCC; CRL-1772, medium; DMEM, 10% FBS) were cultured in a 12- or 24-well plate until they reached 100% confluency (37° C., 5% CO2).
The medium was changed to 2.5% Horse Serum (HS) and differentiation was started. The medium (DMEM, 2.5% HS) was replaced every three days.
After starvation, a test compound listed in Table 12 (concentration: 10 μM) was added thereto, and after 10 minutes, the medium was discarded and the plate was frozen with liquid nitrogen.
(§2) To the 12- or 24-well cell plate which had been frozen was added 100 or 150 μL of Cell lysis buffer pH 7.4 (50 mM HEPES (pH 7.4), 2 mM sodium orthovanadate, 10 mM sodium pyrophosphate, 10 mM NaF, 2 mM EDTA, 2 mM EGTA, 0.1% (v/v) NP-40, 0.2 mM PMSF), and the cells were scraped off with a cell scraper, suspended and transferred into a micro centrifugal tube. And then, the cells were ultrasonically crushed (1 second×3 times) with a sonicator. Centrifugation was performed at 4° C. at 15,000 rpm for 15 minutes, and the supernatant was recovered into a new tube.
(§3) To 100 μL of the supernatant was added 25 μL of 5× sample buffer (280 mM Tris-HCl (pH 6.9), 40% glycerol, 10% (3-mercaptoethanol, 13% SDS, a small amount of bromophenol blue) and mixed together. The rest of the supernatant was used for protein quantification, and the protein concentrations were uniformed by adding 1× sample buffer depending on the concentration of each sample.
(§4) An electrophoresis chamber was filled with 1× SDS buffer (25 mM Tris-HCl, 250 mM glycine, 0.1% SDS), and the sample was applied to a well of polyacrylamide gel. Electrophoresis was performed until the bromophenol blue in the sample reached to the bottom of the gel.
(§5) A filter paper was soaked in 1× Transfer buffer sufficiently, above which the PVDF membrane and the gel after electrophoresis were stacked in this order, and thereabove a filter paper which had been soaked in 1× Transfer buffer sufficiently was further stacked, from which an air was removed and the resultant was set in semi-dry type transfer apparatus and transferred (7V, 35 minutes).
(§6) An unnecessary portion of the blotted membrane was cutoff, and the rest was immediately soaked in blocking buffer (5% skimmed milk in Rinse buffer), and shaken at room temperature at 40 rpm for 3 hours.
(§7) After blocking, the membrane was transferred into Rinse buffer, and washed at room temperature for 10 minutes while shaking. The membrane was soaked in a primary antibody solution (AMPK alpha Antibody (Cell signaling; #2532) 1/1,000 in Rinse buffer, Phospho-AMPK alpha (Thr172) (40H9) antibody (Cell signaling; #2535) 1/1,000 in Rinse buffer), and shaken at 4° C. at 40 rpm overnight.
(§8) The membrane was soaked in a secondary antibody solution (goat anti-rabbit IgG-HRP Antibody (Santa Cruz; sc-2030) 1/2,000 in Rinse buffer), and shaken at room temperature at 40 rpm for 1 hour.
(§9) After the membrane was washed for 45 minutes in the same way as after the primary antibody reaction, the membrane was soaked in a chemiluminescent reaction solution (ECL Western Blotting Detection Reagents, GE Healthcare) for about 1 minute. An excess of the reaction solution was removed, and then the membranes were arranged on a transparent film and sandwiched with it, with which an X-ray film was exposed in a darkroom (for about several seconds to 60 seconds) to develop the film.
(§10) The X-ray film was scanned to take the image, for which the band was measured by using the image analysis software “Image J” to determine the respective amounts of pAMPK and AMPK.

AdipoR1 [2] = experiment: Measurement of AMPK phosphorylation ability (Assay 2), C2C12 cells with unrelated or AdipoR1 siRNA; format: cell-based, Mouse
Method: C2C12 cells (ATCC; CRL-1772, medium; DMEM, 10% Fetal Bovine Serum (FBS)) were cultured in a 12- or 24-well plate until they reached 100% confluency (37° C., 5% CO2). The medium was changed to DMEM, 2.5% Horse Serum (HS) and differentiation was started. The medium (DMEM, 2.5% HS) was replaced two days after the start of differentiation. The medium (DMEM, 2.5% HS) was further replaced two days after that.
(§11) On the next day following the replacement of the medium, first, 1 μL of Lipofectamine RNAiMAX and 50 μL of OPTI-MEM were mixed, and then 5 μM siRNA (sense siRNA sequence: […]tt (SEQ ID NO: 1)) and 50 μL of OPTI-MEM were mixed and the resultants were left to stand at room temperature for 5 minutes. And then, the 1 μL Lipofectamine RNAiMAX/50 μL OPTI-MEM and the 5 μM siRNA/50 μL OPTI-MEM were mixed, and the resultant was left to stand at room temperature for 10 minutes, which was added to the cells.
After 5 minutes, the medium (DMEM, 2.5 HS) was replaced, and after starvation on the next day, a test compound listed in Table 12 was added thereto. After 10 minutes, the medium was discarded and the plate was frozen with liquid nitrogen.
(§12) The respective amounts of pAMPK and AMPK were determined in the same way as in the above Assay 1.

AdipoR1 [3] = target: T2, AdipoR1 (Homo sapiens, UniProt Q96A54); experiment: Measurement of AMPK phosphorylation ability (Assay 1), HEK 293T cells, Western blotting; format: cell-based; set-up: HEK 293T cells (ATCC; CRL-3216, medium; host or cells: HEK 293T; conditions: 10 minutes
T2 sequence (Q96A54 1-375): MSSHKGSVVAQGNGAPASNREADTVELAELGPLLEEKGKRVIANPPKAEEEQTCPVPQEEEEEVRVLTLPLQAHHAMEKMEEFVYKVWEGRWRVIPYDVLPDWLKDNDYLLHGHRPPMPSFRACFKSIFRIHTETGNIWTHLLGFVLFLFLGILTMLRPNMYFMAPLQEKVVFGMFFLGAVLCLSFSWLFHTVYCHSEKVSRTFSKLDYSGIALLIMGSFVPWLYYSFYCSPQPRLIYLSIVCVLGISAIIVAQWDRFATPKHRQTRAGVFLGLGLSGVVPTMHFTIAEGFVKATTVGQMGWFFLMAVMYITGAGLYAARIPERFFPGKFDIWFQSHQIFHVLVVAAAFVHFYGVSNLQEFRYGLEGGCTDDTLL
Method: as §1
HEK 293T cells (ATCC; CRL-3216, medium; DMEM, Fetal Bovine Serum (FBS)) were cultured in a 12- or 24-well plate until they reached 100% confluency (37° C., 5% CO2).
After starvation, a test compound listed in Tables 10 and 11 (concentration: 25 μM, 50 μM) was added thereto, and after 10 minutes, the medium was discarded and the plate was frozen with liquid nitrogen.
as §2, §3, §4, §5, §6, §7, §8, §9, §10

AdipoR1 [4] = target: T2, AdipoR1; experiment: Measurement of AMPK phosphorylation ability (Assay 2), HEK 293T cells with unrelated or AdipoR1 siRNA; format: cell-based; set-up: HEK 293T cells (ATCC; CRL-3216, medium; host or cells: HEK 293T
Method: HEK 293T cells (medium; DMEM, 10% FBS) were cultured in a 24-well plate until they reached 60% confluency (37° C., 5% CO2).
as §11, with “First,” for “On the next day following the replacement of the medium, first,”
After 5 minutes, the medium (DMEM, 10% FBS) was replaced, and after starvation on the next day, a test compound listed in Tables 10 and 11 was added thereto. After 10 minutes, the medium was discarded and the plate was frozen with liquid nitrogen.
as §12

SMILES	pAMPK/AMPK (%) (AdipoR1 [1])	pAMPK/AMPK (%) (AdipoR1 [3]; 25 μM)	pAMPK/AMPK (%) (AdipoR1 [3]; 50 μM)	pAMPK/AMPK (ratio) siRNA, AdipoR1 siRNA (AdipoR1 [4]) [ratio]	pAMPK/AMPK (ratio) siRNA, unrelated siRNA (AdipoR1 [4]) [ratio]	pAMPK/AMPK (ratio) siRNA, AdipoR1 siRNA (AdipoR1 [2]) [ratio]	pAMPK/AMPK (ratio) siRNA, unrelated siRNA (AdipoR1 [2]) [ratio]
COCCNC(=O)c1ccc(OC2CCN(Cc3ccc(OC)cc3F)CC2)c(Cl)c1 [No. 197248]	89.63	–	–	–	–	2.55	2.09
O=C(NCc1ccncc1)c1ccc(OC2CCN(Cc3ccoc3)CC2)cc1 [No. 196462]	82.72	–	–	–	–	2.58	2.06
COc1ccc(C(=O)N2CCN(Cc3ccc(C(F)(F)F)cc3)CC2)cc1OC [No. 191294]	89.56	–	–	–	–	3.54	3.25
COc1ccccc1N1CCN(CCC(=O)Nc2cccc(Cl)c2)CC1 [No. 189474]	88.87	–	–	–	–	1.62	2.00
COc1ccc(CN2CCN(C(=O)CCNC(=O)c3ccc(C(C)(C)C)cc3)CC2)cc1C [No. 183665]	99.03	–	–	–	–	2.83	2.88
COc1ccccc1N1CCN(CCC(=O)Nc2ccccc2Cl)CC1 [No. 189640]	82.40	–	–	–	–	1.82	1.85
COc1cccc(NC(=O)c2ccc(CN3CCN(Cc4ccccc4)CC3)cc2)c1 [No. 103694]	81.05	–	–	–	–	3.34	4.67
NC(=O)c1ccc(OCC(=O)NC2CCN(Cc3ccc(Cl)c(Cl)c3)CC2)cc1 [Compound 19]	–	83.61	95.02	3.75	3.88	–	–
CCOc1ccc(OCC(=O)NC2CCN(Cc3cccc(C(F)(F)F)c3)CC2)cc1 [Compound 40]	–	80.20	91.33	2.25	2.25	–	–

Further lines, with some results ahead:

pAMPK/AMPK (%) (AdipoR1 [1])	pAMPK/AMPK (%) (AdipoR1 [3]; 25 μM)	pAMPK/AMPK (%) (AdipoR1 [3]; 50 μM)	pAMPK/AMPK (ratio) siRNA, AdipoR1 siRNA (AdipoR1 [4]) [ratio]	pAMPK/AMPK (ratio) siRNA, unrelated siRNA (AdipoR1 [4]) [ratio]	SMILES	pAMPK/AMPK (ratio) siRNA, AdipoR1 siRNA (AdipoR1 [2]) [ratio]	pAMPK/AMPK (ratio) siRNA, unrelated siRNA (AdipoR1 [2]) [ratio]
87.39	–	–	–	–	Cc1ccccc1CN1CCC(Oc2ccc(C(=O)NCc3ccccn3)cc2)CC1 [No. 198637]	2.51	2.24
80.62	–	–	–	–	O=C(NCCc1ccc(Cl)cc1)c1ccc(OC2CCN(Cc3ccccn3)CC2)cc1 [No. 264785]	3.58	3.70
80.12	–	–	–	–	O=C(NC1CCCC1)c1ccc(OC2CCN(Cc3ccoc3)CC2)c(Cl)c1 [No. 268508]	2.87	2.58
90.14	–	–	–	–	Cc1cccc(CN2CCC(Oc3ccc(C(=O)NC4CCCC4)cc3Cl)CC2)n1 [No. 492284]	1.88	2.05
85.37	–	–	–	–	COCCNC(=O)c1ccc(OC2CCN(Cc3ccc(C)s3)CC2)c(Cl)c1 [No. 197372]	1.96	1.78
81.64	–	–	–	–	COCCNC(=O)c1ccc(OC2CCN(Cc3cc(OC)ccc3F)CC2)c(Cl)c1 [No. 274971]	2.51	2.38
85.03	–	–	–	–	COCCNC(=O)c1ccc(OC2CCN(Cc3cc4ccccc4o3)CC2)c(Cl)c1 [No. 473771]	2.39	1.67
90.15	–	–	–	–	CC(C)N(Cc1cnn(C)c1)C(=O)c1ccc(OC2CCN(Cc3ccccn3)CC2)cc1 [No. 206685]	2.39	1.76
80.04	–	–	–	–	O=C(NC1CCN(Cc2ccccc2)CC1)c1ccc(Cl)c(Cl)c1 [No. 550212]	2.14	1.91
83.18	–	–	–	–	O=C(NC1CCCC1)c1ccc(OC2CCN(Cc3cccc(O)c3)CC2)c(Cl)c1 [No. 251327]	3.15	2.85
